In brackets after ≈: the same amount, converted by molar mass.
How the values were obtained:
E. coli ATCC 25922 = experiment: Animal efficacy, rat lung infection, aerosol administration; format: in vivo; conditions: aerosol administration of a 40 mg/mL solution of tobramycin alone (FIG. 18)
Description: The in vivo efficacy of aerosolized fosfomycin alone, tobramycin alone and combinations of fosfomycin plus tobramycin were evaluated against E. coli ATCC 25922 and P. aeruginosa ATCC 27853 in rat lungs. The bacterial inoculum used to establish the rat lung infections consisted of a mixture of bacteria and agarose beads. E. coli ATCC 25922 or P. aeruginosa ATCC 27853 was streaked onto blood agar plates and incubated for 18-24 hours at 35° C. Two to three colonies were inoculated into 10 mL Tryptic Soy Broth (hereafter referred to as TSB) and incubated statically at 35° C. for 1.5 to 2 hours. The culture was adjusted to an optical density of 0.1 (625 nm) in fresh TSB and then diluted 1:5 in TSB. One milliliter of bacterial suspension (approximately 10^7 CFU/mL) was added to 10 mL of a 2% noble agar solution and briefly mixed by inversion. The mixture was added to 150 mL of heavy white mineral oil equilibrated to 55° C. and stirred on ice for 5 minutes. The cooled suspension was poured into a 250 mL centrifuge tube and centrifuged at 3,000 rpm, 4° C., for 10 minutes. The supernatant was decanted off, the pellet resuspended in 25 mL of normal sterile saline, and transferred to a 50 mL conical centrifuge tube. […]
Bacterial killing was evaluated 18 hours after the last exposure. […] The lungs were removed aseptically, excess tissue removed and the lung weight determined. […]

[1] = in vivo; cited from earlier work
P. aeruginosa ATCC 27853 = experiment: MIC for P. aeruginosa ATCC 27853; format: cell-based; conditions: Pseudomonas aeruginosa, ATCC27853
Description: E. coli ATCC 25922 and S. aureus ATCC 29213 were used as quality control stains. Bacterial strains were streaked onto blood agar plates, and incubated at 35° C. for 18 hours. Two to three bacterial colonies from the overnight cultures were inoculated into 3 mL of sterile normal saline, vortexed briefly, and adjusted to a 0.5 McFarland standard (NCCLS, 2003). The bacterial suspension was diluted 1:100 in cation-adjusted Mueller-Hinton broth (hereafter referred to as CAMHB). […] The MIC was defined as the lowest concentration of antibiotic (s) that prevented visible growth after incubation at 35° C. for 18-24 hours. […] Two to three bacterial colonies were inoculated into 10 mL CAMHB and incubated at 35° C. in a shaking water bath (250 rpm) for 18-24 hours. […] The resulting culture was adjusted to a 0.5 McFarland standard (NCCLS, 2003). […] Ten milliliter aliquots were then pipeted into 50 mL conical tubes. […] The killing activity of fosfomycin plus amikacin, arbekacin, dibikacin, gentamicin, kanamycin, […], neomycin, streptomycin, or tobramycin were also compared to the killing activity of their individual components alone. […] A no drug control was run in each experiment. Cultures were incubated with antibiotic at 35° C. in a shaking (250 rpm) water bath for 24 hours. […] Culture plates were incubated at 35° C. for 18-24 hours and the number of colonies enumerated manually. […]

Row | Structure (SMILES) | killing of E. coli in the rat lung (E. coli ATCC 25922) [log 10] | prevalence of nephrotoxicity [1] | MIC (P. aeruginosa ATCC 27853) [µg/mL]
1 | NC[C@H]1O[C@H](O[C@H]2[C@H](O)[C@@H](O[C@H]3O[C@H](CO)[C@@H](O)[C@H](N)[C@H]3O)[C@H](N)C[C@@H]2N)[C@H](N)C[C@@H]1O [Tobramycin] | 2 | 31-42% | –
2 | C[C@@H]1O[C@@H]1P(=O)(O)O [Fosfomycin] | – | – | 4 (≈ 29 µM)

From patent US8980226B2, “Aerosolized fosfomycin/aminoglycoside combination for the treatment of bacterial respiratory infections” (Gilead Sciences, Inc., priority 2004, dated 2015)
